Laboratory results published in ChEMBL document CHEMBL4196104, “Hawaiienols A-D, Highly Oxygenated p-Terphenyls from an Insect-Associated Fungus, Paraconiothyrium hawaiiense” (J Nat Prod, 2018).
The source made the active and inactive calls. The rule behind the calls is not given here.

Key:
Type in all cases: functional, cell-based
SH-SY5Y [1] = assay: Antiproliferative activity against human SH-SY5Y cells at 50 uM after 24 hrs by CCK-8 assay
HCT-116 [2] = assay: Antiproliferative activity against human HCT116 cells at 50 uM after 24 hrs by CCK-8 assay
MCF7 [3] = assay: Antiproliferative activity against human MCF7 cells at 50 uM after 24 hrs by CCK-8 assay
HeLa [4] = assay: Antiproliferative activity against human HeLa cells at 50 uM after 24 hrs by CCK-8 assay
T-24 [5] = assay: Antiproliferative activity against human T24 cells at 50 uM after 24 hrs by CCK-8 assay
A549 [6] = assay: Antiproliferative activity against human A549 cells at 50 uM after 24 hrs by CCK-8 assay
A549 [7] = assay: Antiproliferative activity against human A549 cells after 24 hrs by CCK-8 assay; conditions: A549, 24 h
MCF7 [8] = assay: Antiproliferative activity against human MCF7 cells after 24 hrs by CCK-8 assay; conditions: MCF7, 24 h
HeLa [9] = assay: Antiproliferative activity against human HeLa cells after 24 hrs by CCK-8 assay
HCT-116 [10] = assay: Antiproliferative activity against human HCT116 cells after 24 hrs by CCK-8 assay; conditions: HCT-116, 24 h
SH-SY5Y [11] = assay: Antiproliferative activity against human SH-SY5Y cells after 24 hrs by CCK-8 assay
T-24 [12] = assay: Antiproliferative activity against human T24 cells after 24 hrs by CCK-8 assay; conditions: T-24, 24 h

SMILES: COc1ccc([C@]23O[C@](c4ccc(OC)cc4)([C@@H](O)[C@@H]2O)[C@@H](O)[C@@H]3O)cc1
- Activity (SH-SY5Y [1]): inactive
- Activity (HCT-116 [2]): inactive
- Activity (MCF7 [3]): inactive
- Activity (HeLa [4]): inactive
- Activity (T-24 [5]): inactive
- Activity (A549 [6]): inactive

SMILES: COc1ccc([C@]2(O)C(=O)[C@@]3(OC)OC2[C@@H](O)[C@@]3(O)c2ccc(OC)cc2)cc1
- Activity (SH-SY5Y [1]): inactive
- Activity (HCT-116 [2]): inactive
- Activity (MCF7 [3]): inactive
- Activity (HeLa [4]): inactive
- Activity (T-24 [5]): inactive
- Activity (A549 [6]): inactive

SMILES: COc1ccc([C@]2(O)[C@H](O)C(=O)[C@@](O)(c3ccc(OC)cc3)[C@H](O)[C@H]2O)cc1
- Activity (SH-SY5Y [1]): inactive
- Activity (HCT-116 [2]): inactive
- Activity (MCF7 [3]): inactive
- Activity (HeLa [4]): inactive
- Activity (T-24 [5]): inactive
- Activity (A549 [6]): inactive

SMILES: COc1ccc([C@]23O[C@@H]4C2O[C@](OC)([C@H]3O)[C@]4(O)c2ccc(O)cc2)cc1
- IC50 (A549 [7]): 23.1 µM
- IC50 (MCF7 [8]): 42.9 µM
- IC50 (HeLa [9]): 19.7 µM
- IC50 (HCT-116 [10]): 57.1 µM
- IC50 (SH-SY5Y [11]): 9.3 µM
- IC50 (T-24 [12]): 46.6 µM
